Source: the supplement of paper PMC10307832

Legend:
Test in all cases: relative viability (nuclei count vs DMSO), 5 days (fraction); higher = more cells survive
[1] = compound: CC(C)N(CCCNC(=O)Nc1ccc(C(C)(C)C)cc1)C[C@H]1O[C@@H](n2ccc3c(N)ncnc32)[C@H](O)[C@@H]1O + N=C(N)NC(=N)NCCc1ccccc1 [Phenformin] (partner 250 µM)
In short: (§1)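 Values are medians from duplicate plates. Each reflects relative viability, defined as the nuclei count of treated wells over that of vehicle wells. Lung cancer cell lines in 1536-well plates were pin-tool dosed one day after seeding with one drug alone or with a fixed anchor-drug dose plus five library-drug doses (not always all listed) in √10 steps, then fixed, stained and imaged at 4× after 5 days.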

Shikonin + Bortezomib = compound: CC(C)=CC[C@@H](O)C1=CC(=O)c2c(O)ccc(O)c2C1=O [Shikonin] + CC(C)C[C@H](NC(=O)[C@H](Cc1ccccc1)NC(=O)c1cnccn1)B(O)O [Bortezomib] (partner 0.002 µM)
In short: as §1

Shikonin + Pemetrexed = compound: CC(C)=CC[C@@H](O)C1=CC(=O)c2c(O)ccc(O)c2C1=O [Shikonin] + Nc1nc2[nH]cc(CCc3ccc(C(=O)N[C@@H](CCC(=O)O)C(=O)O)cc3)c2c(=O)[nH]1 [Pemetrexed] (partner 0.2 µM)
In short: as §1

Shikonin = compound: CC(C)=CC[C@@H](O)C1=CC(=O)c2c(O)ccc(O)c2C1=O [Shikonin]
In short: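 Lung cancer cell lines in 1536-well plates were exposed by pinning to five library-drug doses (not always all listed) √10 apart, following an overnight hold at 37 °C. MetaXpress counted Hoechst-stained nuclei from 4× images taken after 5 days without medium change. Viability is the median ratio of treated-well to vehicle-well nuclei across plates. Plates required control CV below 25% and at least one doubling.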

Row | Cell Line | relative viability ([1]; first compound 0.08 µM) | relative viability ([1]; first compound 0.253 µM) | relative viability ([1]; first compound 2.53 µM) | relative viability ([1]; first compound 8 µM) | relative viability (Shikonin + Bortezomib; first compound 0.01 µM) | relative viability (Shikonin + Bortezomib; first compound 0.1 µM) | relative viability (Shikonin + Bortezomib; first compound 0.3162 µM) | relative viability (Shikonin + Bortezomib; first compound 1 µM) | relative viability (Shikonin + Pemetrexed; first compound 0.01 µM) | relative viability (Shikonin + Pemetrexed; first compound 0.1 µM) | relative viability (Shikonin + Pemetrexed; first compound 0.3162 µM) | relative viability (Shikonin + Pemetrexed; first compound 1 µM) | relative viability (Shikonin; 0.01 µM) | relative viability (Shikonin; 0.1 µM) | relative viability (Shikonin; 0.3162 µM) | relative viability (Shikonin; 1 µM) | relative viability ([1]; first compound 0.8 µM)
1 | HCC-827 | 0.393 | 0.383 | 0.417 | 0.417 | 1.11 | 1.06 | 1.03 | 1.1 | 0.23 | 0.283 | 0.234 | 0.259 | 1.04 | 1.04 | 1.04 | 1.06 | –
2 | HOP-62 | 0.704 | 0.69 | 0.566 | 0.545 | 0.958 | 0.715 | 0.875 | 0.902 | 0.432 | 0.353 | 0.349 | 0.278 | 1.15 | 1.11 | 1.23 | 1.02 | 0.638
3 | IA-LM | – | – | – | – | 0.715 | 0.769 | 1.04 | 0.876 | – | – | – | – | 1.13 | 0.875 | 1.05 | 0.859 | –
4 | LC-2-ad | 0.587 | 0.546 | 0.6 | 0.565 | 1.08 | 1.05 | 1.07 | 1.02 | 0.297 | 0.273 | 0.269 | 0.282 | 0.965 | 1.05 | 1.01 | 1.01 | 0.526
5 | LCLC-97TM1 | 0.424 | 0.487 | 0.373 | 0.43 | 0.331 | 0.721 | 0.814 | 0.631 | 0.123 | 0.162 | 0.155 | 0.16 | 0.991 | 1.02 | 1.08 | 0.968 | 0.548
6 | LCLC-103H | 0.326 | 0.342 | 0.261 | 0.304 | 1.12 | 1.12 | 1.07 | 1.25 | 0.436 | 0.49 | 0.46 | 0.477 | 0.946 | 1.2 | 1.05 | 1.08 | 0.304
7 | LK-2 | 0.433 | 0.326 | 0.562 | 0.411 | – | – | – | – | 0.311 | 0.3 | 0.306 | 0.266 | 1.1 | 0.955 | 0.998 | 1.03 | 0.433
8 | LOU-NH91 | 0.685 | 0.712 | 0.65 | 0.671 | 0.533 | 0.469 | 0.445 | 0.535 | 0.367 | 0.381 | 0.381 | 0.458 | 0.984 | 1.04 | 1.04 | 1.02 | 0.441
9 | LU99A | 0.793 | 0.679 | 0.85 | 0.787 | 1.21 | 1.33 | 1.09 | 1.03 | 0.174 | 0.206 | 0.191 | 0.199 | 1.02 | 1 | 0.996 | 0.923 | 0.979
10 | LXF-289 | 0.518 | 0.556 | 0.539 | 0.478 | 1.1 | 1.03 | 1 | 1.04 | 0.892 | 0.959 | 0.955 | 0.945 | 1.08 | 0.999 | 1.08 | 0.992 | 0.541
11 | NCI-H358 | 0.291 | 0.303 | 0.286 | 0.273 | – | – | – | – | 0.159 | 0.182 | 0.172 | 0.154 | 0.978 | 0.862 | 0.967 | 0.979 | 0.383
12 | NCI-H522 | 0.606 | 0.673 | 0.664 | 0.56 | – | – | – | – | 0.937 | 1 | 1.3 | 1.22 | 0.962 | 1.09 | 0.955 | 0.956 | 0.677
13 | NCI-H727 | 0.554 | 0.461 | 0.639 | 0.412 | 0.862 | 0.933 | 0.973 | 0.755 | – | – | – | – | 0.916 | 1.03 | 0.933 | 1.02 | 0.46
14 | NCI-H1299 | – | – | – | – | 1.03 | 1.03 | 1.05 | 1.03 | – | – | – | – | 1.05 | 1.06 | 1.01 | 0.973 | –
15 | NCI-H1395 | 0.433 | 0.436 | 0.438 | 0.424 | – | – | – | – | 0.84 | 0.944 | 0.85 | 1.01 | 0.899 | 0.987 | 0.846 | 0.987 | 0.43
16 | NCI-H1623 | 0.547 | 0.666 | 0.607 | 0.565 | – | – | – | – | – | – | – | – | 0.934 | 0.817 | 1.08 | 1.07 | 0.597
17 | NCI-H1648 | – | – | – | – | – | – | – | – | 0.793 | – | 0.979 | 0.742 | 0.911 | 0.686 | 1.07 | 1.08 | –
18 | NCI-H1703 | – | – | – | – | 0.302 | 0.361 | 0.23 | 0.114 | – | – | – | – | 0.994 | 1.21 | 0.864 | 0.646 | –
19 | NCI-H1793 | 0.396 | – | 0.371 | 0.316 | – | – | – | – | 0.808 | 1.05 | 0.798 | 1.11 | 0.926 | 1.1 | 0.85 | 0.936 | 0.336
20 | NCI-H1944 | 0.223 | 0.195 | 0.188 | 0.198 | – | – | – | – | 0.625 | 0.719 | 0.676 | 0.572 | 0.993 | 1.06 | 1.12 | 0.986 | 0.199
21 | NCI-H2170 | 0.445 | 0.441 | 0.445 | 0.396 | – | – | – | – | 0.25 | 0.284 | 0.282 | 0.272 | 1.01 | 0.866 | 1.12 | 0.99 | 0.416
22 | NCI-H2342 | 0.574 | 0.553 | 0.532 | 0.493 | – | – | – | – | 0.808 | 0.852 | 0.809 | 0.804 | 0.941 | 0.943 | 1.11 | 0.991 | 0.499
23 | SK-MES-1 | 0.663 | 0.669 | 0.69 | 0.617 | – | – | – | – | 0.923 | 1.17 | 0.984 | 1.01 | 1.04 | 1.08 | 1.1 | 0.962 | 0.692
24 | SW 900 | 0.719 | 0.634 | 0.541 | 0.486 | – | – | – | – | 0.422 | 0.548 | 0.468 | 0.535 | 0.746 | 0.918 | 0.709 | 0.851 | –
